Experimental findings from patent US8871753B2, “Macrocyclic compounds and their use as kinase inhibitors” (Incyte Corporation, priority 2008, dated 2014) are described below.

Structures can show the parent of a compound that is named as a salt. Where two headings read alike, the source gives them in different places.

Assay type in all cases: biochemical
Assay [1] addresses T1, human JAK1 (a.a. 837-1142) (Homo sapiens, UniProt P23458).
T1 construct: human JAK1 (a.a. 837-1142); His tag (N); made in house; host or cells: insect cells (baculovirus)
Kind of assay: In vitro JAK kinase assay (HTRF, phosphorylation of a biotinylated peptide), JAK1. Conditions: read-out: JAK1 IC50. Put shortly:
(§1)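 Kinase reactions ran at room temperature for 1 h with ATP matched per isoform (JAK1 90 μM, JAK2 30 μM, JAK3 3 μM). After an EDTA stop, the phosphorylated biotin-peptide was read by HTRF using Eu-Py20 and SA-APC after 40 min binding.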
On the technique in general: TR-FRET usually uses a lanthanide donor and a delayed reading to cut background.

The target of assay [2] is T2, human JAK2 (a.a. 828-1132) (Homo sapiens, UniProt O60674).
T2 construct: JAK2 (a.a. 828-1132); His tag (N); made in house; host or cells: insect cells (baculovirus)
T2 sequence (O60674 828-1132): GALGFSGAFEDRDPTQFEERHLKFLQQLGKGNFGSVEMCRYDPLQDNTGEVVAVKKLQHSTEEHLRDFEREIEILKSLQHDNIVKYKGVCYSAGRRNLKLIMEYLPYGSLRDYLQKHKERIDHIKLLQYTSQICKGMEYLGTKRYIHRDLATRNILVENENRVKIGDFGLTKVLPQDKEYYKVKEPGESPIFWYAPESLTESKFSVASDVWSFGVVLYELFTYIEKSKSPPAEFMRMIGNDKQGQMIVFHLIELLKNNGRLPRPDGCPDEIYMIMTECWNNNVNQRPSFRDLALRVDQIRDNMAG
Briefly: In vitro JAK kinase assay (HTRF, phosphorylation of a biotinylated peptide), JAK2. An outline of the steps:
as §1

In assay [3] the target is T3, human JAK3 (a.a. 781-1124) (Homo sapiens, UniProt P52333).
T3 construct: JAK3 (a.a. 781-1124); His tag (N); made in house; host or cells: insect cells (baculovirus)
T3 sequence (P52333 781-1124): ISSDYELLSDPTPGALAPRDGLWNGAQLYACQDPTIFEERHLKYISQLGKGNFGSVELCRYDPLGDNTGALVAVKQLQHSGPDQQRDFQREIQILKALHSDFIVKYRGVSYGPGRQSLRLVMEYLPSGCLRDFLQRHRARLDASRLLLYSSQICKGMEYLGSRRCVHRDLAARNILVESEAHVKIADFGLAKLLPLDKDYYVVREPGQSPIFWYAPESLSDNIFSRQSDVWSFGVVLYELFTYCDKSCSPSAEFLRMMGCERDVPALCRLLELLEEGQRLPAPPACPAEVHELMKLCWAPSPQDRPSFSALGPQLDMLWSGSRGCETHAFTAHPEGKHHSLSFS
Briefly: In vitro JAK kinase assay (HTRF, phosphorylation of a biotinylated peptide), JAK3. An outline of the steps:
as §1

Another assay has as its target TYK2 (Homo sapiens, UniProt P29597). Kind of assay: TYK2 kinase inhibition (Table A1).
Assay [4] addresses T4, Recombinant Human Anaplastic Lymphoma Kinase (Homo sapiens, UniProt Q9UM73).
T4 construct: purchased Invitrogen, Carlsbad, Calif
Briefly: ALK HTRF kinase assay. An outline of the steps: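 Recombinant human ALK phosphorylated a biotinylated synthetic peptide. Phosphotyrosine was detected by TR-FRET between a Eu-labelled anti-phosphotyrosine antibody and streptavidin-allophycocyanin. IC50 values came from fitting signal against inhibitor concentration to a four-parameter logistic equation with variable Hill slope.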

Setting [5] is: method AA1 (90 μM ATP) or AA2 (1000 μM ATP), not stated per value.
The mark [6] stands for this setting: method AA1 (30 μM ATP) or AA2 (1000 μM ATP), not stated per value.
Setting [7] is: method AA1 (3 μM ATP) or AA2 (1000 μM ATP), not stated per value.
The mark [8] stands for this setting: compound at 500 nM or 1 mM, 90 μM ATP.
Where [9] appears, read: compound at a concentration of 500 nM or 1 mM (not specified), cells shown as percentage.

T4 sequence (Q9UM73 19-1620): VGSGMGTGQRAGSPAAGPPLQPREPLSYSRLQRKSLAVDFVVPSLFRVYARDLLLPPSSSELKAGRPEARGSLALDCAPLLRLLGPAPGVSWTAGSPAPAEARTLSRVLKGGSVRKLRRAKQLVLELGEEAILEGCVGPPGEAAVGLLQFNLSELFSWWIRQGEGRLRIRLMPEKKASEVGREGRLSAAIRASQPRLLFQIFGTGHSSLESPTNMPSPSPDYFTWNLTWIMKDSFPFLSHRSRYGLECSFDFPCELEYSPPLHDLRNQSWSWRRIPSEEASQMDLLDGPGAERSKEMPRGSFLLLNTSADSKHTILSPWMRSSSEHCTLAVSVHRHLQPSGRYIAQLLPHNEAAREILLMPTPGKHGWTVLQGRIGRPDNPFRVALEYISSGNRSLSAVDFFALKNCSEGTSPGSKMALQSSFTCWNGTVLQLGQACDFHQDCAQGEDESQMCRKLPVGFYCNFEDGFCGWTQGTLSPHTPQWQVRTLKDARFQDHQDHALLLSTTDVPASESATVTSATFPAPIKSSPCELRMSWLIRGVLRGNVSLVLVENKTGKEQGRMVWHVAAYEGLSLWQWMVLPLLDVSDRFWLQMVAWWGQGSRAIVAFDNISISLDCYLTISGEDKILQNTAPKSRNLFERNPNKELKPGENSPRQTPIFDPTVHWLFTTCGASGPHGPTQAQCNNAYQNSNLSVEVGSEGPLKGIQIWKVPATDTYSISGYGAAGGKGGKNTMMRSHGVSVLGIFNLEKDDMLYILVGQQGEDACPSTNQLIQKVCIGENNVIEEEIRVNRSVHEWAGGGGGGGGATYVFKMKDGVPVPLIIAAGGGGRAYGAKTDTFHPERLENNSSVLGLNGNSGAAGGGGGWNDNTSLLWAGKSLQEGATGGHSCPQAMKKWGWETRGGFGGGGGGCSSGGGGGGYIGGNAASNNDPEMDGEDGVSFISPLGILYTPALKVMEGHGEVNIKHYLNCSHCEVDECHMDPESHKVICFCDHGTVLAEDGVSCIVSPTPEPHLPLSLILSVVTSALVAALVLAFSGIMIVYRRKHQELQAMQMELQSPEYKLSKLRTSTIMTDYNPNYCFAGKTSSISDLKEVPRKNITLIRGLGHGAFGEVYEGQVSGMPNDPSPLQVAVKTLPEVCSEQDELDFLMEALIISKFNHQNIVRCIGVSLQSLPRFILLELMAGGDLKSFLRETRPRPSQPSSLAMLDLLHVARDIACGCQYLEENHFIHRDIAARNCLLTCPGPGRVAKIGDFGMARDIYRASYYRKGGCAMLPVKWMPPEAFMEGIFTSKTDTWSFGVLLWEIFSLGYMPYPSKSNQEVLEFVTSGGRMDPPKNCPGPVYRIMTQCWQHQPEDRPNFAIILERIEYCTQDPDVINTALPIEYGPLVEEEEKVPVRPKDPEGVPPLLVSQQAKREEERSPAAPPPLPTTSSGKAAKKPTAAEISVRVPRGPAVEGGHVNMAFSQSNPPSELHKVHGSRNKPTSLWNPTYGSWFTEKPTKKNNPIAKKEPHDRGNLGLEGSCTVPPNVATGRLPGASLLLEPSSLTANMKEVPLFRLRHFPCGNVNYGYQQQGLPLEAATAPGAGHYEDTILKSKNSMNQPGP
Sequence of TYK2 (P29597 whole entry): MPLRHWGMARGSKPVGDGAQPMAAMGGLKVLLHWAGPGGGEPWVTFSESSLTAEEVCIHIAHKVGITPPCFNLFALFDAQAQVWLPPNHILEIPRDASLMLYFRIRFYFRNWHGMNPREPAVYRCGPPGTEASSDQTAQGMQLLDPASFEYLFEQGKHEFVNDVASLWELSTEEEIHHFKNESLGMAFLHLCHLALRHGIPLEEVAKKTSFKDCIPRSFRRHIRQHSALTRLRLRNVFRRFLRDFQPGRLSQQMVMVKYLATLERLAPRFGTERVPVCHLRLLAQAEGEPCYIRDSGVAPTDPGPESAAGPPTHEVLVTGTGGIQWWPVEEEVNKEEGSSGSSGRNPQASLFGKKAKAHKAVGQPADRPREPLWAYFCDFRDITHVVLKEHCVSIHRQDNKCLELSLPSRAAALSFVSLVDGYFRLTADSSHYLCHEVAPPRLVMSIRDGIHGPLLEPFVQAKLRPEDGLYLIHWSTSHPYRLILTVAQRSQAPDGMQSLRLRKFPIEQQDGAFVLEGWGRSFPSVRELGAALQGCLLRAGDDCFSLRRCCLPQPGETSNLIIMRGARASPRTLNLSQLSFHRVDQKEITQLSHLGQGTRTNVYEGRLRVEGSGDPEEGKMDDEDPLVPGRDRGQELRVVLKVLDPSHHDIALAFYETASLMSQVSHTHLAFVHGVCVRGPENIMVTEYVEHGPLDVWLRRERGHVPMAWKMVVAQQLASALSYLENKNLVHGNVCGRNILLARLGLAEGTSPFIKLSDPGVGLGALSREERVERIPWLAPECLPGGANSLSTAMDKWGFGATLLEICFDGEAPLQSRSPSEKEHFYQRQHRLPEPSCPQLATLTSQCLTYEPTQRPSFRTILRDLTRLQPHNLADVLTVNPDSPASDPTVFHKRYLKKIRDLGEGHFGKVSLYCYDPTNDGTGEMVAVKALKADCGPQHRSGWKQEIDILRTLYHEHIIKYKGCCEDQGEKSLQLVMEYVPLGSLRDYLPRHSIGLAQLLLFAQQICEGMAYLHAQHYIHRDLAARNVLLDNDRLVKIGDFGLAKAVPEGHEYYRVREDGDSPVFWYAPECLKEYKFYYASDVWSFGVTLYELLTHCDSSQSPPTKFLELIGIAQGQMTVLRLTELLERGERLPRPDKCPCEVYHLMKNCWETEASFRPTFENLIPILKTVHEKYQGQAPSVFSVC
T1 sequence (P23458 849-1154): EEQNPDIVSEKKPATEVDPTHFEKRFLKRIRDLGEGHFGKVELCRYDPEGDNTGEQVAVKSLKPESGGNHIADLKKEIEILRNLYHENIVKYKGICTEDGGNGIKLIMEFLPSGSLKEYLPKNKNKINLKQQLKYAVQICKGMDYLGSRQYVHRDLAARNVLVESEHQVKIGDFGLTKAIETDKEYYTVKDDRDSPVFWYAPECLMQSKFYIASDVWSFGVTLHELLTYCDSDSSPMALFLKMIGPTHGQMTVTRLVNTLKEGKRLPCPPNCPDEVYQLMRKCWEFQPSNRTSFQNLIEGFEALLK

For `Cc1cc(C)c(C#N)c(N2CCC(CC(=O)Nc3ccc4cc3CCc3cncc(c3)Nc3ncc(Cl)c(n3)N4)CC2)n1` [Example A239, N-[6-Chloro-2,4,8,18,22-pentaazatetracyclo[14.3.1.1(3,7).1(9,13)]docosa-1(20),3(22),4,6,9(21),10,12,16,18-nonaen-12-yl]-2-[1-(3-cyano-4,6-dimethylpyridin-2-yl)piperidin-4-yl]acetamide tris(trifluoroacetate)], the IC50 (as a rule, the concentration that gives 50% inhibition) in assay [1] (setting [5]) was 16 nM; in assay [2] (setting [6]), 226 nM; in assay [3] (setting [7]), > 400 nM; on TYK2, > 400 nM. For the same compound, the “ALK % of inhibition at a concentration of 500 nM or 1 mM” value (“ALK % of inhibition” below) in assay [4] (setting [8]) worked out at 17%.

With `COCCNC(=O)Nc1ccc2cc1CCc1cccc(c1)Nc1ncc(Cl)c(n1)N2` [Example B243, N-[6-Chloro-2,4,8,22-tetraazatetracyclo[14.3.1.1(3,7).1(9,13)]docosa-1(20),3(22),4,6,9(21),10,12,16,18-nonaen-12-yl]-N′-(2-methoxyethyl)urea trifluoroacetate], the concentration for half-maximal inhibition (IC50) came out at 0.92 nM in assay [1] (Table B1), 1.5 nM in assay [2] (Table B1), 16 nM in assay [3] (Table B1) and 3.1 nM against TYK2 (Table B1). Also, the “ALK % of inhibition” value in assay [4] (setting [9]) is reported as 14%.

In the case of `CC(=O)N1CC[C@H](NC(=O)Nc2ccc3cc2CCc2cccc(c2)Nc2ncc(Cl)c(n2)N3)C1` [Example B168, N-[(3S)-1-Acetylpyrrolidin-3-yl]-N′-[6-chloro-2,4,8,22-tetraazatetracyclo[14.3.1.1(3,7).1(9,13)]docosa-1(20),3(22),4,6,9(21),10,12,16,18-nonaen-12-yl]urea trifluoroacetate], the half-inhibitory concentration (IC50) in assay [1] (Table B1) was 2.8 nM; in assay [2] (Table B1), 12 nM; in assay [3] (Table B1), 67 nM; against TYK2 (Table B1), 17 nM. The “ALK % of inhibition” value in assay [4] (setting [9]) came to 21%.

For `COc1ccc(S(=O)(=O)N2CCC(CC(=O)Nc3ccc4cc3CCc3cncc(c3)Nc3ncc(Cl)c(n3)N4)CC2)cc1` [Example A197, N-[6-Chloro-2,4,8,18,22-pentaazatetracyclo[14.3.1.1(3,7).1(9,13)]docosa-1(20),3(22),4,6,9(21),10,12,16,18-nonaen-12-yl]-2-{1-[(4-methoxyphenyl)sulfonyl]piperidin-4-yl}acetamide bis(trifluoroacetate)], the IC50 was 30 nM in assay [1] (setting [5]), > 200 nM in assay [2] (setting [6]), > 200 nM in assay [3] (setting [7]) and > 200 nM on TYK2. Moreover, the “ALK % of inhibition” value in assay [4] (setting [8]) is recorded as 39%.

As to `O=C(Nc1ccc2cc1CCc1cccc(c1)Nc1ncc(Cl)c(n1)N2)Nc1c(Cl)cccc1Cl` [Example B113, N-[6-Chloro-2,4,8,22-tetraazatetracyclo[14.3.1.1(3,7).1(9,13)]docosa-1(20), 3(22),4,6,9(21),10,12,16,18-nonaen-12-yl]-N′-(2,6-dichlorophenyl)urea trifluoroacetate], the IC50 came to 4.7 nM in assay [1] (Table B1), 7.4 nM in assay [2] (Table B1), 48 nM in assay [3] (Table B1) and 17 nM against TYK2 (Table B1). The “ALK % of inhibition” value in assay [4] (setting [9]) is on record as 9.5%.

As to `O=C(Nc1cc2cc(c1)Nc1nc(ncc1Cl)Nc1cccc(c1)CC2)NC1CCCC1` [Example B215, N-[6-Chloro-2,4,8,22-tetraazatetracyclo[14.3.1.1(3,7).1(9,13)]docosa-1(20),3(22),4,6,9(21),10,12,16,18-nonaen-11-yl]-N′-cyclopentylurea trifluoroacetate], the IC50 in assay [1] (Table B1) was determined as 91 nM; in assay [2] (Table B1), 43 nM; in assay [3] (Table B1), 189 nM; against TYK2 (Table B1), 766 nM. In assay [4] (setting [9]), the “ALK % of inhibition” value worked out at 31%.
